Reference: article PMC4583475, “Receptor Polymorphism and Genomic Structure Interact to Shape Bitter Taste Perception” (PLoS Genetics, 2015)

Key:
TAS2R46-H1 = molecular target: T1, TAS2R46-H1 (Homo sapiens, UniProt P59540); assay: Calcium imaging in HEK 293T Gα16gust44 cells transfected with TAS2R46-H1; assay type: cell-based; conditions: for threshold: first concentration eliciting significant receptor activation
T1 construct: N-terminal signal for cell surface localisation (N); expressed in transfected cells; host or cells: HEK 293T cells stably expressing the G protein chimera Gα16gust44
T1 sequence (P59540 1-309): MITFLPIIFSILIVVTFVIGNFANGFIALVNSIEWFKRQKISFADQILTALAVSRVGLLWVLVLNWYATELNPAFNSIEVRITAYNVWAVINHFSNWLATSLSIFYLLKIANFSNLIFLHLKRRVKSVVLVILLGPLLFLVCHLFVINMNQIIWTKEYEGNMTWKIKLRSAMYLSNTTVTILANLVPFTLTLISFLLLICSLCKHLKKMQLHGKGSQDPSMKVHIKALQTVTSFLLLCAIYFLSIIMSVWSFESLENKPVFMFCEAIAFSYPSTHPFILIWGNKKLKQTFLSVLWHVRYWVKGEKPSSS
From the text: (§1) Allelic responses to agonists were quantified using in vitro heterologous expression assays designed in previous studies of TAS2R receptor function, which successfully mimic responses in vivo with respect to both magnitude and concentration range [17, 23, 25, 26, 46]. DNA fragments containing TAS2R coding sequences were first amplified from genomic DNA by PCR using a proofreading polymerase (PfuUltra II Fusion HotStart DNA Polymerase; Agilent Technologies, Santa Clara, CA, USA) and cloned into a plasmid vector according to the manufacturer’s protocol (Zero Blunt TOPO PCR Cloning Kit; Life Technologies). A second PCR was performed using specific cloning primers to facilitate subcloning into the expression vector, which was then modified to add an N-terminal signal for cell surface localisation and a C-terminal epitope for immunocytochemical detection to the receptor sequence (Fast Link DNA Ligation Kit; Epicentre, Illumina Inc., Madison, WI, USA) (pcDNA5/FRT Mammalian Expression Vector; Life Technologies). Empty vector was used as a negative control.
(§2) Functional assays were carried out in HEK 293T cells stably expressing the G protein chimera Gα16gust44 and transiently transfected with TAS2R alleles subcloned into the expression vector [78]. Calcium imaging was performed using an automated fluorometric imaging plate reader by exposing transfected cells to test compounds dissolved in assay buffer or to assay buffer alone (FLIPR Tetra; Molecular Devices, LLC, Sunnyvale, CA, USA). Changes in cytosolic calcium levels were monitored by measuring fluorescence intensity of a calcium-sensitive dye previously added (Fluo-4 AM; Life Technologies). Six replicates were carried out for each bitter stimulus, on separate experimental days, with each replicate consisting of concentration series of each bitter tastant.
(§3) Prior to final analysis, fluorescence data from functional assays, expressed in relative fluorescence units (RFU), underwent three corrections. First, a correction calculated from baseline values was applied to compensate for well-to-well fluctuations. A second correction calculated from negative control values was applied to correct for receptor independent artefacts and signal drift. A third correction calculated from positive control values was applied to facilitate comparison of data obtained from different experimental days. Fluorescence ratios ((F-F0)/F0), obtained by subtracting the background fluorescence from fluorescence peak height and then dividing the difference by the background fluorescence, were then used for data analysis. Variance analyses were performed, followed by Bonferroni multiple comparisons tests (SPSS 20; IBM Corporation, Armonk, NY, USA). Threshold response values were then defined as the first concentration eliciting a significant activation of the receptor, with empty vector acting as a negative control. Finally, dose-response curves were fitted to the Hill equation by nonlinear regression in order to determine half maximal effective concentrations (EC50) and maximal amplitude (SigmaPlot; Systat Software Inc., Chicago, IL, USA).

[1] = test system: every known TAS2R in humans; set-up: method as in PMID 20022913; conditions: complete TAS2R family; cited from earlier work
TAS2R43-H2 = assay: Calcium imaging in HEK 293T Gα16gust44 cells transfected with TAS2R43-H2; assay type: cell-based, human
From the text: as §1, §2
as §3, with “Threshold response values were then defined as the first concentration eliciting a significant activation of the receptor, with empty vector acting as a negative control. Finally, dose-response curves were fitted to the Hill equation by nonlinear regression in order to determine half maximal effective concentrations (EC50) and maximal amplitude (SigmaPlot; Systat Software Inc., Chicago, IL, USA).” left out

TAS2R46-H3 = assay: Calcium imaging in HEK 293T Gα16gust44 cells transfected with TAS2R46-H3; assay type: cell-based, human; conditions: for threshold: first concentration eliciting significant receptor activation
From the text: as §1, §2, §3

TAS2R46-H2 = molecular target: T2, TAS2R46-H2 (Homo sapiens, UniProt P59540); assay: Calcium imaging in HEK 293T Gα16gust44 cells transfected with TAS2R46-H2; assay type: cell-based; conditions: TAS2R46-H2, truncated variant (premature stop codon)
T2 construct: TAS2R46-H2, a truncated, six-transmembrane variant of the receptor; N-terminal signal for cell surface localisation (N); expressed in transfected cells; host or cells: HEK 293T cells stably expressing the G protein chimera Gα16gust44
T2 sequence (P59540 1-249 limits assumed): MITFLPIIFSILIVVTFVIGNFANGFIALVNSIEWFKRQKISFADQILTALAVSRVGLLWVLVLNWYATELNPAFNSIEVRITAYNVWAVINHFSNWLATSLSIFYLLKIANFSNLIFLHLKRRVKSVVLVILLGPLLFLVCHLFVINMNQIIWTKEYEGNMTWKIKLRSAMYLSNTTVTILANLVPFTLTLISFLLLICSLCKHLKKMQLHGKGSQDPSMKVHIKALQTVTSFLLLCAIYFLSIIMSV
From the text: as §1, §2, §3

[2] = test system: bitter taste perception of 48 Caucasian subjects; assay: Human psychophysical bitter taste tests (4-AFC recognition thresholds, gLMS intensity ratings); assay type: in vivo; conditions: for recognition threshold, fold range across subjects: 48 human subjects; for concentration perceived as strongly bitter, fold range across subjects / concentration perceived as strongly bitter, mode: gLMS strong intensity; for concentration perceived as weakly bitter, fold range across subjects / concentration perceived as weakly bitter, mode: gLMS weak intensity
Experimental: All were pre-screened to avoid inclusion of individuals with health problems and overt taste pathologies; pregnant and breast-feeding women were also excluded. Each subject participated in the entire course of the study, which included one training session and nine experimental sessions. Visits consisted of DNA collection and psychophysical tests for genotyping and phenotypic analyses, respectively. General taste abilities were also assessed for the bitter, salty, sour, and sweet taste during the first session.
Experiments were conducted at the sensory analysis laboratory of the German Institute of Human Nutrition Potsdam-Rehbruecke, according to good practice guidelines. […] Perceived bitter taste intensities were rated on the general Labelled Magnitude Scale (gLMS; [72–74]). […] For each 4-AFC test, four coded samples containing 10 ml solution were presented simultaneously; one containing the bitter tastant diluted in mineral water (Evian; Danone, Paris, France) and three containing mineral water only. At each concentration, subjects were challenged to identify the different sample, specify whether the quoted sample tasted bitter, and rate the perceived bitter intensity. Tests were performed with nose clips and oral rinsing, with a 45 s pause between concentrations. Training sessions were first used to familiarize subjects with the experimental procedures, and secondly, to assess general taste abilities. Concentration series consisted of geometric sequences of […], with a 1.5 common ratio and the following concentration ranges: 3.5x10^-5–2.0x10^-3M, 6.9x10^-4–4.0x10^-2 M, 2.6x10^-4–1.5x10^-2 M, 6.9x10^-4–4.0x10^-2 M, for salicin, sodium chloride, citric acid, and sucrose used as reference tastants for bitter, salty, sour, and sweet taste, respectively. Following training, subjects tested each tastant in triplicate over nine sessions. Latin square designs extended for first-order carry-over effects were used to counterbalance presentation order of the test compounds over the test sessions, across subjects and for each test compound, as well as presentation order of the samples at each concentration across both repetitions and subjects. Sensory sessions were monitored and data automatically collected (Fizz; Biosystèmes, Couternon, France).
Detection and recognition probabilities of the bitter samples were analysed per repetition and subject. Relationships between probabilities (detection or recognition probabilities) and concentrations were fitted by a logistic regression model using the maximum-likelihood method. Threshold value and slope of the logistic curves were then obtained per repetition and subject, using a self-implemented toolbox (Matlab; The MathWorks Inc.). […] Where required, outliers were discarded according to the Peirce’s criterion. Perceived intensities, expressed in percentage of the scale length, were analysed similarly.

TAS2R43-H1 = assay: Calcium imaging in HEK 293T Gα16gust44 cells transfected with TAS2R43-H1; assay type: cell-based, human
From the text: as §1, §2
as §3, with “Threshold response values were then defined as the first concentration eliciting a significant activation of the receptor, with empty vector acting as a negative control. Finally, dose-response curves were fitted to the Hill equation by nonlinear regression in order to determine half maximal effective concentrations (EC50) and maximal amplitude (SigmaPlot; Systat Software Inc., Chicago, IL, USA).” left out

TAS2R30-H1 = assay: Calcium imaging in HEK 293T Gα16gust44 cells transfected with TAS2R30-H1; assay type: cell-based, human
From the text: as §1, §2, §3

[3] = test system: TAS2R30, -31, -43, and -46; assay: Calcium imaging functional assays, statements across TAS2R loci (variants not resolved); assay type: cell-based, human
From the text: as §1
as §2, with “Six replicates were carried out for each bitter stimulus, on separate experimental days, with each replicate consisting of concentration series of each bitter tastant.” left out
Prior to final analysis, fluorescence data from functional assays, expressed in relative fluorescence units (RFU), underwent three corrections. First, a correction calculated from baseline values was applied to compensate for well-to-well fluctuations. A second correction calculated from negative control values was applied to correct for receptor independent artefacts and signal drift. […]

TAS2R30-H2 = assay: Calcium imaging in HEK 293T Gα16gust44 cells transfected with TAS2R30-H2; assay type: cell-based, human
From the text: as §1, §2, §3

[4] = first concentration eliciting significant receptor activation

Row | Compound | EC50 (TAS2R46-H1) [µM] | maximum amplitude (TAS2R46-H1) | threshold (TAS2R46-H1) [µM] | TAS2Rs responsive in published receptor-agonist inventory [1] | EC50 (TAS2R46-H3) [µM] | maximum amplitude (TAS2R46-H3) | threshold (TAS2R46-H3) [µM] | receptor variant response (TAS2R46-H2) | recognition threshold, fold range across subjects [2] [fold] | concentration perceived as strongly bitter, fold range across subjects [2] [fold] | concentration perceived as strongly bitter, mode [2] [µM] | concentration perceived as weakly bitter, fold range across subjects [2] [fold] | concentration perceived as weakly bitter, mode [2] [µM] | receptor variant response (TAS2R30-H1) | receptor variant response (TAS2R46-H1) | receptor variant response (TAS2R46-H3) | further results
1 | C=C1C(=O)O[C@H]2[C@H]1[C@@H](O)CC(=C)[C@@H]1CC(=O)[C@@H](C)[C@H]21 [grosheimin] | 5.6 | 0.87 ΔF/F | 1 | only TAS2R43 and -46 | 7.6 | 0.50 ΔF/F | 3 | not activated at any concentration | 25 | 5 | 33 | 17 | 15 | – | – | – | EC50 (TAS2R43-H2): 6.9 µM; maximum amplitude (TAS2R43-H2): 0.81 ΔF/F; threshold (TAS2R43-H2; [4]): 3 µM; EC50 (TAS2R43-H1): 16 µM; maximum amplitude (TAS2R43-H1): 0.60 ΔF/F; threshold (TAS2R43-H1; [4]): 10 µM
2 | COC1=C[C@@H](C)[C@@H]2C[C@H]3OC(=O)C[C@H]4C(C)=C(OC)C(=O)[C@H]([C@@]2(C)C1=O)[C@@]34C [quassin] | – | – | – | – | – | – | – | least sensitive | 38 | 8 | – | 26 | – | responding in ranges matching phenotypic recognition threshold | most sensitive | intermediate | TAS2Rs activated in vitro [3]: only TAS2R30 and TAS2R46
3 | CC1=C[C@H]2[C@H]3[C@H](C(C)=C4[C@H]5OC(=O)[C@@H](C)[C@@H]5CC[C@](C)(O)[C@@H]43)[C@@]13[C@@H]2[C@@](C)(O)CC[C@H]1[C@H](C)C(=O)O[C@@H]13 [absinthin] | 11 | 0.63 ΔF/F | 3 | TAS2R30 and -46 | 14 | 0.48 ΔF/F | 10 | no response at any concentration | 40 | 5 | 1.3 | 15 | 0.39 | – | – | – | EC50 (TAS2R30-H1): 3.1 µM; maximum amplitude (TAS2R30-H1): 0.41 ΔF/F; threshold (TAS2R30-H1; [4]): 300 nM; EC50 (TAS2R30-H2): 1.3 µM; maximum amplitude (TAS2R30-H2): 0.15 ΔF/F; threshold (TAS2R30-H2; [4]): 1000 nM
4 | CC(=O)O[C@@H]1C[C@]2(C)[C@H](CC[C@@H](O)[C@]2(C)O)[C@@](C=O)(C[C@@H](O)c2ccoc2)[C@@H]1C [cascarillin] | – | – | – | – | – | – | – | insensitive | 17 | – | – | 11 | – | sensitive | sensitive | intermediate | minimum concentration required to elicit response in functional assays ([3]; TAS2R30 and -46 variants): 30 µM; receptor variant response (TAS2R30-H2): insensitive
